Data published in patent US20100222293A1, “MODULATION OF SPERM MOTILITY” (priority 2007, published 2010).

Tested on: sperm from asthenozoospermic subjects
Test: Sperm motility parameters after incubation with extracellular ATP (automated cell motility analyzer)
Format: cell-based, human
Settings: 2.5 mM ATP, 60 minutes
Description: Semen samples were collected after 3 days of sexual abstinence in sterile containers. After liquefaction at room temperature for 30 minutes, standard seminal parameters were examined according to the WHO laboratory manual [supra]. For sperm movement analysis, a semen aliquot (10 μl) was placed in a Makler chamber, ten different fields per chamber were randomly examined, and at least 100 sperm for each field of the chamber were scored. Percentages of motile sperm and movement characteristics were analysed using an automated analyzer at 37° C. (CellTrack VP110, Motion Analysis Corporation, Palo Alto, Calif., USA). Sperm velocity and kinetic parameters were evaluated for only motile sperm and were expressed as mean values. Standard deviations were calculated and P values of significance were determined by the Student's t-test. The following sperm parameters were determined: curvilinear velocity (VCL) (also referred to as track speed and is the velocity (in μm/sec) of a sperm along individual tracks; straight progressive velocity (VSL) (the average velocity (in μm/sec) measured in a straight line from the beginning to the end of track); amplitude of lateral head displacement (ALH) (mean width (in μm) of sperm head oscillation); and linearity coefficient (LIN=VSL/VCL×100) (the degree (in %) of straightness of the sperm track). To analyze the effects of extracellular ATP on motility parameters of sperm from the asthenozoospermic subjects, sperm samples from the subjects were washed once by the addition of BWW medium (Biggers-Whitten-Whittingham medium; 95 mM NaCl, 4.8 mM KCl, 1.7 mM CaCl2, 1.2 mM KH2PO4, 1.2 MgSO4, 25 NaHCO3, 5.6 mM fructose, 0.25 mM sodium pyruvate, 3.7 ml/l 60% sodium lactate syrup, 10^4 IU/ml penicillin, and 10 mg/ml streptomycin) and centrifugation at 800×g for 10 minutes. After centrifugation and discarding of the supernatant, the sperm pellets were suspended in BWW medium (at a concentration of 10×10^6 sperm/ml), divided into two equivalent aliquots, and allowed to recover for 15 minutes. One aliquot was then incubated at 37° C. with ATP (2.5 mM final concentration from a 100 mM stock solution made by diluting ATP with physiological solution (0.9% NaCl in distilled water) and the second aliquot was incubated at 37° C. with same amount of physiological solution only (as a negative control). After 60 minutes incubation, sperm motility parameters were determined as described above. The effects of extracellular ATP on sperm motility parameters of sperm from subjects with asthenozoospermia after washing from seminal fluid and resuspension in BWW medium (10×10^6 sperm/ml) were examined.

In the case of `Nc1ncnc2c1ncn2[C@@H]1O[C@H](COP(=O)(O)OP(=O)(O)OP(=O)(O)O)[C@@H](O)[C@H]1O` [ATP, adenosine 5′-triphosphate], the “effect on curvilinear velocity (VCL)” value is reported as “No significant effects”, the “effect on lateral sperm head displacement (ALH)” value is reported as “No significant effects” and the “progressive velocity (VSL)” value (37° C., washed sperm in BWW medium, 27 asthenozoospermic subjects, control 23.81±6.04, p=0.0024) is reported as 28.85±7.27 μm/sec. The “linearity (LIN)” value (37° C., washed sperm in BWW medium, control 29.59±6.25, p=0.0004) was 37.7±7.9.
